Columns and labels:
[1] = tested on: uterine cancers, both of the cervix and the endometrium; assay: European phase I trial of gimatecan as single therapeutic agent in patients with advanced cancers; format: in vivo
Experimental: In the light of this preclinical evidence, a European phase I trial was conducted in which gimatecan was administered as a single therapeutic agent with different administration regimens. The patients studied were affected by advanced cancers for which curative or standard therapy was no longer indicated. Although the aim of the study was to assess the tolerability of the treatment with gimatecan, in the course of this clinical trial gimatecan produced a number of lasting objective clinical responses. Particularly worthy of mention are the responses of a number of patients with uterine cancers, both of the cervix and the endometrium, including forms which had received substantial previous treatments and presented metastatic disease.
These responses were subjected to two independent assessments by experts not taking part in the clinical trial, who confirmed the observations.

[2] = preclinical trials in vivo
Source text: Gimatecan is a new anticancer compound that has shown a high therapeutic index in preclinical trials in vivo. Moreover, gimatecan is characterised by an anticancer activity that is maintained with different administration regimens, both intermittent and prolonged.

CC[C@@]1(O)C(=O)OCc2c1cc1n(c2=O)Cc2c-1nc1ccccc1c2/C=N/OC(C)(C)C [gimatecan, 7-terbutoxyiminomethylcamptothecin]
objective clinical response ([1]; patients with uterine cancers (cervix and endometrium), incl. substantially pretreated and metastatic disease, assessed by computed tomography, confirmed by two independent assessments): partial responses | reduction of the tumour lesion or lesions ([1]; responding patients with uterine cancers, diagnostic imaging such as computed tomography, definition of partial response): more than 30% | therapeutic index [2]: high

Reference: patent US7700613B2, “Use of 7-t-butoxyiminomethylcamptothecin for the preparation of a medicament for the treatment of uterine neoplasms” (Sigma-Tau Farmaceutiche Riunite, S.p.A., priority 2004, dated 2010)
